Data reported in patent US20240165092A1, “USE OF AN OREXIN 2 RECEPTOR AGONIST FOR POST OPERATION RECOVERY” (Takeda Pharmaceutical Limited Company, priority 2021, published 2024).

Legend:
Assay type in all cases: in vivo, rat
Male Sprague-Dawley rats [1] = experiment: Time to recovery from isoflurane-induced anesthesia assessed by righting reflex; conditions: for Duration of anesthesia (min) (Mean): isoflurane anesthesia 30 min, vehicle 6.15
Procedure: Male Sprague-Dawley rats, 8 weeks-age, were purchased from Charles river Japan. To induce and maintain isoflurane anesthesia, rats were placed in a pre-filled anesthesia induction chamber isoflurane 4%. The induction of anesthesia was defined as the rat's inability to right itself into the prone position (loss of righting reflex: LORR) after it was placed in the supine position in a cage. After confirming LORR, rats were exposed to 3% isoflurane using a facemask and maintained for 30 min. Fifteen minutes after LORR, Compound (I) was administered subcutaneously (SC) to rats in a volume of 5 mL/kg of body weight (BW). As vehicle-treated control, 10.5% (w/v) Captisol® (CyDex Pharmaceuticals, KS, USA)/1.5 mM Na2HIPO4 in distilled water was administered to rats. Thirty minutes after confirming LORR, isoflurane inhalation was terminated and time to recovery from LORR was recorded as duration of anesthesia. Body temperature was maintained at 37.0-37.5° C. using a heating pad during and after anesthesia.

Male Sprague-Dawley rats [2] = experiment: Time to recovery from propofol-induced anesthesia assessed by righting reflex; conditions: for Duration of anesthesia (min) (Mean): propofol anesthesia 30 min, vehicle 12.8
Procedure: Male Sprague-Dawley rats, 8 weeks-age, were purchased from Charles river Japan. To induce and maintain propofol anesthesia, a bolus dose of propofol (10 mg/kg) was administered intravenously to rats. After confirming LORR, rats were gently placed in the supine position on a heating pad to maintain body temperature at 37.0-37.5° C. Subsequently, continuous administration of propofol at 60 mg/kg/hr was performed for 30 min. Fifteen minutes after LORR, Compound (I) was administered SC to rats in a volume of 5 mL/kg of BW. As vehicle-treated control, 10.5% (w/v) Captisol®/1.5 mM Na2HPO4 in distilled water was administered to rats. Thirty minutes after confirming LORR, propofol infusion was terminated and time to recovery from LORR was recorded as duration of anesthesia.

Male Sprague-Dawley rats [3] = experiment: Fentanyl (0.1 mg/kg)-induced sedation assessed by righting reflex; conditions: for Duration of sedation (min) (Mean): fentanyl 0.1 mg/kg SC, vehicle 88.8
Procedure: Male Sprague-Dawley rats, 8 weeks-age, were purchased from Charles river Japan. In this study, LORR was used as an indicator of sedation. […] As vehicle-treated control, 10.5% (w/v) Captisol®/1.5 mM Na2HIPO4 in distilled water was administered. The time to recovery from LORR was recorded as duration of sedation.

Male Sprague-Dawley rats [4] = experiment: Fentanyl (0.1 mg/kg)-induced respiratory depression assessed by whole body plethysmography (WBP)
Male Sprague-Dawley rats [5] = experiment: Fentanyl-induced analgesic effects in formalin test; conditions: for Phase I (No. of flinching) / Phase II (No. of flinching): formalin test; for Phase I (No. of flinching): 1 to 11 min; for Phase II (No. of flinching): 16 to 61 min
Male Sprague-Dawley rats [6] = experiment: Fentanyl-induced analgesic effects in pain model of postoperative skin incision
[7] = Compound (I) 1.0 mg/kg SC 15 min after LORR
[8] = Compound (I) 10 mg/kg SC 15 min before fentanyl 0.1 mg/kg SC, 0 to 30 min after fentanyl
[9] = Compound (I) 3.0 mg/kg + fentanyl 0.045 mg/kg
[10] = Compound (I) 10 mg/kg + fentanyl 0.045 mg/kg

## COC(=O)N1CCCC(NS(C)(=O)=O)C1COC1CCC(c2ccccc2)CC1 (stereo not drawn) [Compound (I), methyl 3-((methylsulfonyl)amino)-2-(((4-phenylcyclohexyl)oxy)methyl)piperidine-1-carboxylate]
Male Sprague-Dawley rats [1]; Compound (I) 0.3 mg/kg SC 15 min after LORR
  Duration of anesthesia (min) (Mean): 3.92 min
Male Sprague-Dawley rats [1]; [7]
  Duration of anesthesia (min) (Mean): 3.06 min
Male Sprague-Dawley rats [1]; result in words
  time to recovery from isoflurane-induced anesthesia assessed by righting reflex: reduced time to recovery
Male Sprague-Dawley rats [2]; [7]
  Duration of anesthesia (min) (Mean): 11.7 min
Male Sprague-Dawley rats [2]; Compound (I) 3.0 mg/kg SC 15 min after LORR
  Duration of anesthesia (min) (Mean): 6.70 min
Male Sprague-Dawley rats [2]; Compound (I) 10 mg/kg SC 15 min after LORR
  Duration of anesthesia (min) (Mean): 6.00 min
Male Sprague-Dawley rats [2]; result in words
  time to recovery from propofol-induced anesthesia assessed by righting reflex: reduced time to recovery
Male Sprague-Dawley rats [3]; Compound (I) 1.0 mg/kg SC 10 min after fentanyl
  Duration of sedation (min) (Mean): 81.3 min
Male Sprague-Dawley rats [3]; Compound (I) 3.0 mg/kg SC 10 min after fentanyl
  Duration of sedation (min) (Mean): 67.0 min
Male Sprague-Dawley rats [3]; Compound (I) 10 mg/kg SC 10 min after fentanyl
  Duration of sedation (min) (Mean): 42.9 min
Male Sprague-Dawley rats [3]; result in words
  duration of fentanyl-induced sedation assessed by righting reflex: reduced duration of fentanyl-induced sedation
Male Sprague-Dawley rats [4]; [8]
  MV (mL/min) (Mean): 206 mL/min
  RR (breaths/min) (Mean): 144 breaths/min
  TV (mL/stroke) (Mean): 1.61 mL/stroke
Male Sprague-Dawley rats [4]; result in words
  fentanyl-induced respiratory depression: suppressed fentanyl-induced respiratory depression
Male Sprague-Dawley rats [4]; with fentanyl 0.1 mg/kg, result in words
  RR, TV and MV compared to that of vehicle group: increased RR, TV and MV
Male Sprague-Dawley rats [5]; formalin pain model, fentanyl 0.045 mg/kg, result in words
  effect on the analgesic effect of fentanyl: did not counteract the analgesic effect of fentanyl
Male Sprague-Dawley rats [5]; [9]
  Phase I (No. of flinching): 5
  Phase II (No. of flinching): 52
Male Sprague-Dawley rats [5]; [10]
  Phase I (No. of flinching): 4
  Phase II (No. of flinching): 45
Male Sprague-Dawley rats [6]; Compound (I) 3.0 mg/kg SC 15 min before incision + fentanyl 0.03 mg/kg SC
  pain threshold 1 hr after the skin incision: 28.5 g
Male Sprague-Dawley rats [6]; Compound (I) 10 mg/kg SC 15 min before incision + fentanyl 0.03 mg/kg SC
  pain threshold 1 hr after the skin incision: 32.2 g
Male Sprague-Dawley rats [6]; postoperative skin incision model, fentanyl 0.03 mg/kg, result in words
  effect on the analgesic effect of fentanyl: did not counteract the analgesic effect of fentanyl
